# Test results published in ChEMBL document CHEMBL1208714, “Dimeric cyclohexane-1,3-dione oximes inhibit wheat acetyl-CoA carboxylase and show anti-malarial activity” (Bioorg Med Chem Lett, 2010).
# The source made the active and inactive calls. No cut-off for these calls is given here.
# Test system: Plasmodium falciparum
# Assay: Antimalarial activity against Plasmodium falciparum D10
# Type: functional, organism-based
row,IC50 [µM],SMILES
1,5,CCC/C(=N\OCC)C1=C(O)CC(c2ccc(C3CC(=O)C(/C(CCC)=N/OCC)=C(O)C3)cc2)CC1=O (stereo not drawn)
2,> 100,CCOC(=O)C(C)Oc1ccc(Oc2cnc3cc(Cl)ccc3n2)cc1 (stereo not drawn) [QUIZALOFOP ETHYL ESTER]
3,12,CCO/N=C(\C)C1=C(O)CC(c2ccc(C3CC(=O)C(/C(C)=N/OCC)=C(O)C3)cc2)CC1=O (stereo not drawn)
4,> 10,CCO/N=C(\CC)C1=C(O)CC(c2c(C)cc(C)c(C(C)=O)c2C)CC1=O (stereo not drawn)
5,3,CCO/N=C(\CC)C1=C(O)CC(c2cccc(C3CC(=O)C(/C(CC)=N/OCC)=C(O)C3)c2)CC1=O (stereo not drawn)
6,6,CCO/N=C(\CC)C1=C(O)CC(c2ccc(C3CC(=O)C(/C(CC)=N/OCC)=C(O)C3)cc2)CC1=O (stereo not drawn)
7,12.5,CCC/C(=N\OCc1ccccc1)C1=C(O)CC(c2cccc(C3CC(=O)C(/C(CCC)=N/OCc4ccccc4)=C(O)C3)c2)CC1=O (stereo not drawn)
8,25,CCC/C(=N\OC(c1ccccc1)c1ccccc1)C1=C(O)CC(c2cccc(C3CC(=O)C(/C(CCC)=N/OC(c4ccccc4)c4ccccc4)=C(O)C3)c2)CC1=O (stereo not drawn)
9,4,CCC/C(=N\OCC)C1=C(O)CC(c2cccc(C3CC(=O)C(/C(CCC)=N/OCC)=C(O)C3)c2)CC1=O (stereo not drawn)
10,2.5,C=CCO/N=C(\CCC)C1=C(O)CC(c2cccc(C3CC(=O)C(/C(CCC)=N/OCC=C)=C(O)C3)c2)CC1=O (stereo not drawn)

row,SMILES,IC50 [µM]
1,CCSC(C)CC1CC(=O)C(/C(CC)=N/OC/C=C/Cl)=C(O)C1 (stereo not drawn) [CLETHODIM],> 250
2,CC/C(=N\OC/C=C/Cl)C1=C(O)CC(C2CCOCC2)CC1=O (stereo not drawn) [TEPRALOXYDIM],> 100
3,CCCC(=O)c1c(C)cc(C)c(C2CC(=O)C(/C(CC)=N/OCC)=C(O)C2)c1C (stereo not drawn) [BUTROXYDIM],10
4,CCO/N=C(\CC)C1=C(O)CC(c2c(C)cc(C)cc2C)CC1=O (stereo not drawn) [TRALKOXYDIM],> 100
5,CC(Oc1ccc(Oc2cnc3cc(Cl)ccc3n2)cc1)C(=O)O (stereo not drawn) [QUIZALOFOP],> 100

# Test system: not listed separately
# Assay: Inhibition of maize ACC
# Parameters: species or system Zea mays
row,SMILES,IC50 [µM]
1,CCSC(C)CC1CC(=O)C(/C(CC)=N/OC/C=C/Cl)=C(O)C1 (stereo not drawn) [CLETHODIM],0.02
2,CCOC(=O)C(C)Oc1ccc(Oc2cnc3cc(Cl)ccc3n2)cc1 (stereo not drawn) [QUIZALOFOP ETHYL ESTER],> 1
3,CC/C(=N\OC/C=C/Cl)C1=C(O)CC(C2CCOCC2)CC1=O (stereo not drawn) [TEPRALOXYDIM],0.7
4,CCCC(=O)c1c(C)cc(C)c(C2CC(=O)C(/C(CC)=N/OCC)=C(O)C2)c1C (stereo not drawn) [BUTROXYDIM],0.3
5,CCO/N=C(\CC)C1=C(O)CC(c2c(C)cc(C)cc2C)CC1=O (stereo not drawn) [TRALKOXYDIM],0.52
6,CC(Oc1ccc(Oc2cnc3cc(Cl)ccc3n2)cc1)C(=O)O (stereo not drawn) [QUIZALOFOP],0.016

# Test system: acetyl-CoA carboxylase (Triticum aestivum)
# Assay: Inhibition of wheat ACC at 20 uM
row,SMILES,inhibition
1,CCO/N=C(\CC)C1=C(O)CC(c2ccc(C3CC(=O)C(/C(CC)=N/OCC)=C(O)C3)cc2)CC1=O (stereo not drawn),Active
2,CCCC(=O)c1c(C)cc(C)c(C2CC(=O)C(/C(CC)=N/OCC)=C(O)C2)c1C (stereo not drawn) [BUTROXYDIM],Active
